The subject of data set [1] is Pseudomonas aeruginosa. The experiment in a line: Induction of 1-N-phenylnaphthylamine uptake in Pseudomonas aeruginosa DM23155 at 400 uM after 1 hr by fluorescence assay relative to polymyxin B. In kind it is functional.
Data set [2] has as its system Pseudomonas aeruginosa. Put plainly: Antibacterial activity against Pseudomonas aeruginosa DM23155 after 24 hrs by broth microdilution method. The class given is functional. The conditions noted are these: DM23155, 24 h.
A short description of data set [3]: Induction of calcein leakage from DOPC artificial membrane at 1:32 ratio of compound to lipid by fluorescence assay. The class given is physicochemical.
The subject of data set [4] is Lipopolysaccharide (LPS). Put plainly: Displacement of dansylcadaverine from Escherichia coli 0111:B4 LPS at 15 to 30 uM after 5 mins by high-throughput fluorescence displacement assay.
Data set [5] deals with Klebsiella pneumoniae. The experiment in a line: Antibacterial activity against Klebsiella pneumoniae DM4299 after 24 hrs by broth microdilution method. The conditions noted are these: DM4299, 24 h. The class given is functional.
In data set [6] the test system is Lipopolysaccharide (LPS). Put plainly: Induction of Escherichia coli 0111:B4 LPS neutralization using p-nitroaniline assessed as concentration required to neutralize 50% after 1 hr by limulus amebocyte lysate assay.
The nature of data set [7]: Self-aggregation activity of the compound using 8-(Phenylamino)-1-naphthalenesulfonic acid as fluorescent probe at 100 uM by fluorescence assay. In kind it is physicochemical.
The subject of data set [8] is Escherichia coli. The experiment in a line: Antibacterial activity against Escherichia coli ATCC 25922 after 24 hrs by broth microdilution method. In kind it is functional. The conditions noted are these: ATCC 25922, 24 h.
Data set [9] in a line: Self-aggregation activity of the compound using 8-(Phenylamino)-1-naphthalenesulfonic acid as fluorescent probe at 20 uM by fluorescence assay. The class given is physicochemical.
Data set [10] is described as follows: Toxicity in New Zealand white rabbit erythrocytes assessed as hemolytic activity after 60 mins. The class given is cell-based, Oryctolagus cuniculus. To be noted: erythrocyte, 1 h.
A short description of data set [11]: Self-aggregation activity of the compound using 8-(Phenylamino)-1-naphthalenesulfonic acid as fluorescent probe at 300 uM by fluorescence assay in presence of 150 mM of NaCl. The class given is physicochemical.
Data set [12] concerns Pseudomonas aeruginosa. The experiment in a line: Induction of cytoplasmic membrane disruption in Pseudomonas aeruginosa DM23155 assessed as membrane integrity at 1 to 2 times MIC after 1 hr by fluorescence assay. The class given is functional.
The nature of data set [13]: Induction of calcein leakage from DOPE/DOPG artificial membrane at 1:32 ratio of compound to lipid by fluorescence assay. The class given is physicochemical.
Data set [14] in a line: Self-aggregation activity of the compound using 8-(Phenylamino)-1-naphthalenesulfonic acid as fluorescent probe at 300 uM by fluorescence assay. In kind it is physicochemical.
Data set [15] concerns Pseudomonas aeruginosa. The experiment in a line: Induction of cytoplasmic membrane depolarization in Pseudomonas aeruginosa DM23155 at 4 times MIC after 1 hr by fluorescence assay. The class given is functional, organism-based.

Values after ≈ are worked out from the molar mass of the structure shown. Active and inactive are the calls of the source. The rule behind the calls is not given here. Bridge positions count the residues as written; N and C are the ends. Peptide text beside a SMILES is read from it. I, II: the chains in the order shown. * marks the point of attachment. Palmitoyl = CCCCCCCCCCCCCCCC(=O)*; Myristoyl = CCCCCCCCCCCCCC(=O)*; Lauroyl = CCCCCCCCCCCC(=O)* Where only a bound is given, the exact number is not on record here.

In the case of `CCCCCCCCCCCCCCCC(=O)N[C@@H](CCCNC(=N)N)C(=O)NCC(=O)N[C@@H](CCCNC(=N)N)C(=O)N[C@@H](CCCCN)C(=O)NCC(=O)NCC(=O)N[C@@H](CCCNC(=N)N)C(=O)N[C@@H](CCCNC(=N)N)C(=O)NCCCC[C@H](NC(=O)[C@H](CCCNC(=N)N)NC(=O)[C@H](CCCNC(=N)N)NC(=O)CNC(=O)CNC(=O)[C@H](CCCCN)NC(=O)[C@H](CCCNC(=N)N)NC(=O)CNC(=O)[C@H](CCCNC(=N)N)NC(=O)CCCCCCCCCCCCCCC)C(=O)N[C@@H](CCCCN)C(=O)O` (I: Palmitoyl-RGRKGGRRKK-OH / II: Palmitoyl-RGRKGGRR; amide I:9-II:C), the Activity is 36.5% in [1]; “Active” in data set [3]; 106% in data set [4]; 50% in data set [7]; 50% in [9]; “Active” in data set [11]. For the same compound, the MIC in data set [2], in data set [5] and in data set [8] was 10 µM (≈ 26 µg/mL) in each case. In [6], the EC50 turned out to be 43 µM. For the same compound, the HC10 in [10] was 64 µg/mL.
Turning to `CCCCCCCCCCCCCCCC(=O)N[C@@H](CCCNC(=N)N)C(=O)NCC(=O)N[C@@H](CCCNC(=N)N)C(=O)N[C@@H](CCCCN)C(=O)N[C@H](C(=O)N[C@H](C(=O)N[C@@H](CCCNC(=N)N)C(=O)N[C@@H](CCCNC(=N)N)C(=O)NCCCC[C@H](NC(=O)[C@H](CCCNC(=N)N)NC(=O)[C@H](CCCNC(=N)N)NC(=O)[C@@H](NC(=O)[C@@H](NC(=O)[C@H](CCCCN)NC(=O)[C@H](CCCNC(=N)N)NC(=O)CNC(=O)[C@H](CCCNC(=N)N)NC(=O)CCCCCCCCCCCCCCC)C(C)C)C(C)C)C(=O)N[C@@H](CCCCN)C(=O)O)C(C)C)C(C)C` (I: Palmitoyl-RGRKVVRRKK-OH / II: Palmitoyl-RGRKVVRR; amide I:9-II:C), the minimum inhibitory concentration (MIC) in data set [2] is above 40 µM; in data set [5], above 40 µM; in data set [8], 10 µM (≈ 27.7 µg/mL). The Activity result in data set [3] is “Active”; in [4], 151%; in data set [12], below 50%; in [7], 50%; in [13], “Active”; in data set [9], 50%. Further, the outcome in data set [11] was Active. In data set [6], the 50% effective concentration (EC50) amounted to 47.9 µM. Moreover, in data set [10], the HC10 was 114 µg/mL.
Turning to `CCCCCCCCCCCCCC(=O)N[C@@H](CCCNC(=N)N)C(=O)NCC(=O)N[C@@H](CCCNC(=N)N)C(=O)N[C@@H](CCCCN)C(=O)N[C@H](C(=O)N[C@H](C(=O)N[C@@H](CCCNC(=N)N)C(=O)N[C@@H](CCCNC(=N)N)C(=O)NCCCC[C@H](NC(=O)[C@H](CCCNC(=N)N)NC(=O)[C@H](CCCNC(=N)N)NC(=O)[C@@H](NC(=O)[C@@H](NC(=O)[C@H](CCCCN)NC(=O)[C@H](CCCNC(=N)N)NC(=O)CNC(=O)[C@H](CCCNC(=N)N)NC(=O)CCCCCCCCCCCCC)C(C)C)C(C)C)C(=O)N[C@@H](CCCCN)C(=O)O)C(C)C)C(C)C` (I: Myristoyl-RGRKVVRRKK-OH / II: Myristoyl-RGRKVVRR; amide I:9-II:C), the values for the minimum inhibitory concentration (MIC) in data set [2], in [5] and in data set [8] were 3 µM (≈ 8.13 µg/mL), 10 µM (≈ 27.1 µg/mL) and 1.5 µM (≈ 4.07 µg/mL), respectively. Further, the Activity result in data set [3] is “Active”; in data set [4] it was 135%; in data set [12], below 50%; in data set [7], 50%; in data set [13], “Active”; in [9], 50%. The outcome in data set [11] was Active. Further, the EC50 in data set [6] came to 32.1 µM. Besides, the HC10 in [10] came to 252 µg/mL.
Turning to `CCCCCCCCCCCCCCCC(=O)N[C@@H](CCCNC(=N)N)C(=O)NCC(=O)N[C@@H](CCCNC(=N)N)C(=O)N[C@@H](CCCCN)C(=O)N[C@H](C(=O)N[C@H](C(=O)N[C@@H](CCCNC(=N)N)C(=O)N[C@@H](CCCNC(=N)N)C(=O)N[C@@H](CCCCN)C(=O)N[C@@H](CCCCN)C(=O)O)C(C)C)C(C)C` (Palmitoyl-RGRKVVRRKK-OH), the minimum inhibitory concentration (MIC) turned out to be 80 µM (≈ 122 µg/mL) in data set [2], 40 µM (≈ 60.8 µg/mL) in data set [5] and 10 µM (≈ 15.2 µg/mL) in data set [8]. In addition, in data set [14], the Activity result is given as “Not Active”. The HC10 in [10] is 5481 µg/mL.
With `CCCCCCCCCCCCCC(=O)N[C@@H](CCCNC(=N)N)C(=O)NCC(=O)N[C@@H](CCCNC(=N)N)C(=O)N[C@@H](CCCCN)C(=O)NCC(=O)NCC(=O)N[C@@H](CCCNC(=N)N)C(=O)N[C@@H](CCCNC(=N)N)C(=O)NCCCC[C@H](NC(=O)[C@H](CCCNC(=N)N)NC(=O)[C@H](CCCNC(=N)N)NC(=O)CNC(=O)CNC(=O)[C@H](CCCCN)NC(=O)[C@H](CCCNC(=N)N)NC(=O)CNC(=O)[C@H](CCCNC(=N)N)NC(=O)CCCCCCCCCCCCC)C(=O)N[C@@H](CCCCN)C(=O)O` (I: Myristoyl-RGRKGGRRKK-OH / II: Myristoyl-RGRKGGRR; amide I:9-II:C), the Activity in [1] was 39.2%; in data set [3] it was “Active”; in data set [4], 124%; in [7], 50%; in data set [9], 50%; in data set [11], “Active”. Also, the figures for the MIC in [2], in data set [5] and in data set [8] were 6 µM (≈ 15.3 µg/mL), 10 µM (≈ 25.4 µg/mL) and 10 µM (≈ 25.4 µg/mL), respectively. Further, the EC50 in [6] amounted to 35.3 µM. Also, the HC10 in data set [10] amounted to 82 µg/mL.
Take `CCCCCCCCCCCC(=O)N[C@@H](CCCNC(=N)N)C(=O)NCC(=O)N[C@@H](CCCNC(=N)N)C(=O)N[C@@H](CCCCN)C(=O)NCC(=O)NCC(=O)N[C@@H](CCCNC(=N)N)C(=O)N[C@@H](CCCNC(=N)N)C(=O)NCCCC[C@H](NC(=O)[C@H](CCCNC(=N)N)NC(=O)[C@H](CCCNC(=N)N)NC(=O)CNC(=O)CNC(=O)[C@H](CCCCN)NC(=O)[C@H](CCCNC(=N)N)NC(=O)CNC(=O)[C@H](CCCNC(=N)N)NC(=O)CCCCCCCCCCC)C(=O)N[C@@H](CCCCN)C(=O)O` (I: Lauroyl-RGRKGGRRKK-OH / II: Lauroyl-RGRKGGRR; amide I:9-II:C): the Activity in data set [1] was 55.9%; in [3], “Active”; in [4] it was 126%; in [14], 62.5%. For the same compound, the MIC in data set [2], in data set [5] and in data set [8] was 6 µM (≈ 14.9 µg/mL) each time. Moreover, in [6], the EC50 was 62.8 µM. The HC10 in data set [10] was 517 µg/mL.
Regarding `CCCCCCCCCCCC(=O)N[C@@H](CCCNC(=N)N)C(=O)NCC(=O)N[C@@H](CCCNC(=N)N)C(=O)N[C@@H](CCCCN)C(=O)N[C@H](C(=O)N[C@H](C(=O)N[C@@H](CCCNC(=N)N)C(=O)N[C@@H](CCCNC(=N)N)C(=O)NCCCC[C@H](NC(=O)[C@H](CCCNC(=N)N)NC(=O)[C@H](CCCNC(=N)N)NC(=O)[C@@H](NC(=O)[C@@H](NC(=O)[C@H](CCCCN)NC(=O)[C@H](CCCNC(=N)N)NC(=O)CNC(=O)[C@H](CCCNC(=N)N)NC(=O)CCCCCCCCCCC)C(C)C)C(C)C)C(=O)N[C@@H](CCCCN)C(=O)O)C(C)C)C(C)C` (I: Lauroyl-RGRKVVRRKK-OH / II: Lauroyl-RGRKVVRR; amide I:9-II:C), the MIC in data set [2], in [5] and in [8] was 6 µM (≈ 15.9 µg/mL) throughout. For the same compound, the Activity entry is “Active” in data set [3]; 130% in data set [4]; below 50% in data set [12]; “Active” in data set [13]; 27.6% in [14]. In data set [6], the EC50 worked out at 29 µM. For the same compound, in data set [10], the HC10 came out at 543 µg/mL. In addition, the outcome in [15] was Active.

The values above are taken from ChEMBL document CHEMBL3603789, “N-Lipidated Peptide Dimers: Effective Antibacterial Agents against Gram-Negative Pathogens through Lipopolysaccharide Permeabilization” (J Med Chem, 2015).
